# Values of other authors as cited in patent US20200306231A1, “ORAL HYPOGLYCEMIC AGENTS AS FOOD ADDITIVES AND SUPPLEMENTS” (priority 2017, published 2020).
# Columns and labels:
# [1] = in vivo
# [2] = another study
# [3] = type 2 diabetes
# [4] = type 2 diabetes population; compared with other anti-diabetes drugs
# [5] = neoadjuvant chemotherapy; type 2 diabetes patients taking metformin
# [6] = ovarian cancer after chemotherapy, type 2 diabetes
# [7] = lung cancer after chemotherapy; type 2 diabetics taking metformin
# [8] = DPPOS
# [9] = type 2 diabetes patients followed for 10 years; taking metformin compared with not taking metformin
Compound,side effect known to be caused [1],improved survival with metformin use [2] [%],lifespan and health span (mouse model),"risk of developing colorectal cancer, greater for those not taking metformin versus those taking metformin [3] [%]",survival greater for those taking metformin versus not taking [3] [%],risk of cardiovascular disease [4],lifespan (nematodes),risk reduction for developing prostate cancer (type 2 diabetics taking metformin compared with not taking),"overall survival rate greater, taking metformin versus not taking (type 2 diabetics who have prostate cancer) [%]",chance of having a complete response (no residual cancer found during surgery) [5] [%],5-year overall survival rate ([6]; metformin users) [%],progression free survival at 5 years ([6]; taking metformin) [%],overall survival rate [7] [months],progression free survival [7] [months],safety and tolerability [8],weight loss [8],lower risk of developing any type of cancer [9] [%]
COc1ccc2cc3[n+](cc2c1OC)CCc1cc2c(cc1-3)OCO2 [berberine],constipation,,,,,,,,,,,,,,,,
CN(C)C(=N)N=C(N)N [metformin],diarrhea,24,extends both lifespan and health span,200,34,decreased risk of cardiovascular disease,extends the lifespan,no risk reduction,45,24,63,51,20,8.4,safe and well tolerated,moderate but durable weight loss,54
